Non-standard residues stand in square brackets, D forms with d. Residues, ends and D or L forms follow the SMILES beside them. Dab = NCC[C@H](N)C(=O)O; Aib = CC(C)(N)C(=O)O
biological target: T1, glucagon receptor (Homo sapiens, UniProt P47871); experiment: Functional assay-cAMP synthesis, luciferase reporter in HEK293 cells, glucagon receptor; assay type: cell-based; design: % activity: concentration or dose not given beside the values; conditions: Table 26, glucagon receptor
T1 construct: expressed in transfected cells; host or cells: HEK293
T1 sequence (P47871 26-477): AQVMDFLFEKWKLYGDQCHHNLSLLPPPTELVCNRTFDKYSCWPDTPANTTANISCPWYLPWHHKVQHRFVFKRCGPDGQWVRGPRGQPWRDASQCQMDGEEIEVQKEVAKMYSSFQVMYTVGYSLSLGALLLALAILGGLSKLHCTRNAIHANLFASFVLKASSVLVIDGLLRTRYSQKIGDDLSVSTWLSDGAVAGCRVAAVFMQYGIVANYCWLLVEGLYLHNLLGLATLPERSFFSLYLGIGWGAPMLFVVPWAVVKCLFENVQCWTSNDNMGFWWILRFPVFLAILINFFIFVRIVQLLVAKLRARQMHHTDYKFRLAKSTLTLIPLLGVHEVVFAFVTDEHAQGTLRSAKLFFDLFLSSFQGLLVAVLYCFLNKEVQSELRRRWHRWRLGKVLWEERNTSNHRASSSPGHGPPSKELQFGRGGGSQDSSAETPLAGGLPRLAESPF

Compound	% activity
CCCC[C@H](NC(=O)[C@H](CC(C)C)NC(=O)[C@H](Cc1c[nH]c2ccccc12)NC(=O)[C@H](C)NC(=O)[C@@H](NC(=O)[C@H](Cc1ccccc1)NC(=O)[C@H](CCC(=O)O)NC(=O)[C@H](C)NC(=O)[C@H](C)NC(=O)[C@H](CCCNC(=N)N)NC(=O)[C@H](CCCNC(=N)N)NC(=O)[C@@H](NC(=O)[C@H](CC(=O)O)NC(=O)[C@H](CC(C)C)NC(=O)[C@H](Cc1ccc(O)cc1)NC(=O)[C@H](CCCCN)NC(=O)[C@H](CO)NC(=O)[C@H](Cc1ccc(O)cc1)NC(=O)[C@H](CC(=O)O)NC(=O)[C@H](CO)NC(=O)[C@@H](NC(=O)[C@H](Cc1ccccc1)NC(=O)[C@@H](NC(=O)CNC(=O)[C@H](CCC(N)=O)NC(=O)[C@H](CO)NC(=O)[C@@H](N)Cc1c[nH]cn1)[C@@H](C)O)[C@@H](C)O)[C@@H](C)O)C(C)C)C(=O)N[C@@H](CC(=O)O)C(=O)N[C@@H](CCC(=O)O)C(=O)O [SEQ ID NO: 593]	25%
CCCC[C@H](NC(=O)[C@H](CC(C)C)NC(=O)[C@H](Cc1c[nH]c2ccccc12)NC(=O)[C@H](C)NC(=O)[C@@H](NC(=O)[C@H](Cc1ccccc1)NC(=O)[C@H](CCC(=O)O)NC(=O)[C@H](C)NC(=O)[C@H](C)NC(=O)[C@H](CCCNC(=N)N)NC(=O)[C@H](CCCNC(=N)N)NC(=O)[C@@H](NC(=O)[C@H](CC(=O)O)NC(=O)[C@H](CC(C)C)NC(=O)[C@H](Cc1ccc(O)cc1)NC(=O)[C@H](CCCCN)NC(=O)[C@H](CO)NC(=O)[C@H](Cc1ccc(O)cc1)NC(=O)[C@H](CC(=O)O)NC(=O)[C@H](CO)NC(=O)[C@@H](NC(=O)[C@H](Cc1ccccc1)NC(=O)[C@@H](NC(=O)CNC(=O)[C@H](CSCNC(C)=O)NC(=O)[C@H](CO)NC(=O)[C@@H](N)Cc1c[nH]cn1)[C@@H](C)O)[C@@H](C)O)[C@@H](C)O)C(C)C)C(=O)N[C@@H](CC(=O)O)C(=O)N[C@@H](CCC(=O)O)C(=O)O [SEQ ID NO: 594]	33%

Continued, values first:

% activity	Compound
7%	CCCC[C@H](NC(=O)[C@H](CC(C)C)NC(=O)[C@H](Cc1c[nH]c2ccccc12)NC(=O)[C@H](C)NC(=O)[C@@H](NC(=O)[C@H](Cc1ccccc1)NC(=O)[C@H](CCC(=O)O)NC(=O)[C@H](C)NC(=O)[C@H](C)NC(=O)[C@H](CCCNC(=N)N)NC(=O)[C@H](CCCNC(=N)N)NC(=O)[C@@H](NC(=O)[C@H](CC(=O)O)NC(=O)[C@H](CC(C)C)NC(=O)[C@H](Cc1ccc(O)cc1)NC(=O)[C@H](CCCCN)NC(=O)[C@H](CO)NC(=O)[C@H](Cc1ccc(O)cc1)NC(=O)[C@H](CC(=O)O)NC(=O)[C@H](CO)NC(=O)[C@@H](NC(=O)[C@H](Cc1ccccc1)NC(=O)[C@@H](NC(=O)CNC(=O)[C@H](CC[S+](C)[O-])NC(=O)[C@H](CO)NC(=O)[C@@H](N)Cc1c[nH]cn1)[C@@H](C)O)[C@@H](C)O)[C@@H](C)O)C(C)C)C(=O)N[C@@H](CC(=O)O)C(=O)N[C@@H](CCC(=O)O)C(=O)O (stereo partly shown) [SEQ ID NO: 598]
86%	CSCC[C@H](NC(=O)[C@H](CC(C)C)NC(=O)[C@H](Cc1c[nH]c2ccccc12)NC(=O)[C@H](C)NC(=O)[C@@H](NC(=O)[C@H](Cc1ccccc1)NC(=O)[C@H](CC(=O)O)NC(=O)[C@H](C)NC(=O)[C@H](C)NC(=O)[C@H](CCCNC(=N)N)NC(=O)[C@H](CCCNC(=N)N)NC(=O)C(C)(C)NC(=O)[C@H](CC(=O)O)NC(=O)[C@H](CC(C)C)NC(=O)[C@H](Cc1ccc(O)cc1)NC(=O)[C@H](CCCCN)NC(=O)[C@H](CO)NC(=O)[C@H](Cc1ccc(O)cc1)NC(=O)[C@H](CC(=O)O)NC(=O)[C@H](CO)NC(=O)[C@@H](NC(=O)[C@H](Cc1ccccc1)NC(=O)[C@@H](NC(=O)CNC(=O)[C@H](CCNC(C)=O)NC(=O)[C@H](CO)NC(=O)[C@@H](N)Cc1c[nH]cn1)[C@@H](C)O)[C@@H](C)O)C(C)C)C(=O)N[C@@H](CC(=O)O)C(=O)N[C@@H](CCC(=O)O)C(=O)O [SEQ ID NO: 601]
7%	CCCC[C@H](NC(=O)[C@H](CC(C)C)NC(=O)[C@H](Cc1c[nH]c2ccccc12)NC(=O)[C@H](C)NC(=O)[C@@H](NC(=O)[C@H](Cc1ccccc1)NC(=O)[C@H](CCC(=O)O)NC(=O)[C@H](C)NC(=O)[C@H](C)NC(=O)[C@H](CCCNC(=N)N)NC(=O)[C@H](CCCNC(=N)N)NC(=O)[C@@H](NC(=O)[C@H](CC(=O)O)NC(=O)[C@H](CC(C)C)NC(=O)[C@H](Cc1ccc(O)cc1)NC(=O)[C@H](CCCCN)NC(=O)[C@H](CO)NC(=O)[C@H](Cc1ccc(O)cc1)NC(=O)[C@H](CC(=O)O)NC(=O)[C@H](CO)NC(=O)[C@@H](NC(=O)[C@H](Cc1ccccc1)NC(=O)[C@@H](NC(=O)CNC(=O)[C@H](CCCNC(C)=O)NC(=O)[C@H](CO)NC(=O)[C@@H](N)Cc1c[nH]cn1)[C@@H](C)O)[C@@H](C)O)[C@@H](C)O)C(C)C)C(=O)N[C@@H](CC(=O)O)C(=O)N[C@@H](CCC(=O)O)C(=O)O [SEQ ID NO: 599]
19%	CCCC[C@H](NC(=O)[C@H](CC(C)C)NC(=O)[C@H](Cc1c[nH]c2ccccc12)NC(=O)[C@H](C)NC(=O)[C@@H](NC(=O)[C@H](Cc1ccccc1)NC(=O)[C@H](CCC(=O)O)NC(=O)[C@H](C)NC(=O)[C@H](C)NC(=O)[C@H](CCCNC(=N)N)NC(=O)[C@H](CCCNC(=N)N)NC(=O)[C@@H](NC(=O)[C@H](CC(=O)O)NC(=O)[C@H](CC(C)C)NC(=O)[C@H](Cc1ccc(O)cc1)NC(=O)[C@H](CCCCN)NC(=O)[C@H](CO)NC(=O)[C@H](Cc1ccc(O)cc1)NC(=O)[C@H](CC(=O)O)NC(=O)[C@H](CO)NC(=O)[C@@H](NC(=O)[C@H](Cc1ccccc1)NC(=O)[C@@H](NC(=O)CNC(=O)[C@H](CCNC(C)=O)NC(=O)[C@H](CO)NC(=O)[C@@H](N)Cc1c[nH]cn1)[C@@H](C)O)[C@@H](C)O)[C@@H](C)O)C(C)C)C(=O)N[C@@H](CC(=O)O)C(=O)N[C@@H](CCC(=O)O)C(=O)O [SEQ ID NO: 595]
13%	CCCC[C@H](NC(=O)[C@H](CC(C)C)NC(=O)[C@H](Cc1c[nH]c2ccccc12)NC(=O)[C@H](C)NC(=O)[C@@H](NC(=O)[C@H](Cc1ccccc1)NC(=O)[C@H](CCC(=O)O)NC(=O)[C@H](C)NC(=O)[C@H](C)NC(=O)[C@H](CCCNC(=N)N)NC(=O)[C@H](CCCNC(=N)N)NC(=O)[C@@H](NC(=O)[C@H](CC(=O)O)NC(=O)[C@H](CC(C)C)NC(=O)[C@H](Cc1ccc(O)cc1)NC(=O)[C@H](CCCCN)NC(=O)[C@H](CO)NC(=O)[C@H](Cc1ccc(O)cc1)NC(=O)[C@H](CC(=O)O)NC(=O)[C@H](CO)NC(=O)[C@@H](NC(=O)[C@H](Cc1ccccc1)NC(=O)[C@@H](NC(=O)CNC(=O)[C@H](CNC(N)=O)NC(=O)[C@H](CO)NC(=O)[C@@H](N)Cc1c[nH]cn1)[C@@H](C)O)[C@@H](C)O)[C@@H](C)O)C(C)C)C(=O)N[C@@H](CC(=O)O)C(=O)N[C@@H](CCC(=O)O)C(=O)O [SEQ ID NO: 596]

same assay, conditions: Table 27, glucagon receptor

% activity	Compound
46%	CC(=O)NCC[C@H](NC(=O)[C@H](CO)NC(=O)[C@@H](N)Cc1c[nH]cn1)C(=O)NCC(=O)N[C@H](C(=O)N[C@@H](Cc1ccccc1)C(=O)N[C@H](C(=O)N[C@@H](CO)C(=O)N[C@@H](CC(=O)O)C(=O)N[C@@H](Cc1ccc(O)cc1)C(=O)N[C@@H](CO)C(=O)N[C@@H](CCCCN)C(=O)N[C@@H](Cc1ccc(O)cc1)C(=O)N[C@@H](CC(C)C)C(=O)N[C@@H](CC(=O)O)C(=O)NC(C)(C)C(=O)N[C@@H](CCCNC(=N)N)C(=O)N[C@@H](CCCNC(=N)N)C(=O)N[C@@H](C)C(=O)N[C@H](C(=O)N[C@@H](CC(=O)O)C(=O)N[C@@H](Cc1ccccc1)C(=O)N[C@H](C(=O)N[C@H](C(=O)N[C@@H](Cc1c[nH]c2ccccc12)C(=O)N[C@@H](CC(C)C)C(=O)N[C@@H](CC(C)C)C(=O)N[C@@H](CC(=O)O)C(=O)N[C@@H](CCC(=O)O)C(=O)O)[C@@H](C)O)C(C)C)[C@@H](C)O)[C@@H](C)O)[C@@H](C)O (H-HS[Dab](Ac)GTFTSDYSKYLD[Aib]RRATDFVTWLLDE-OH; N-terminus and C-terminus assumed)
54%	CC(=O)NCC[C@H](NC(=O)[C@H](CO)NC(=O)[C@@H](N)Cc1c[nH]cn1)C(=O)NCC(=O)N[C@H](C(=O)N[C@@H](Cc1ccccc1)C(=O)N[C@H](C(=O)N[C@@H](CO)C(=O)N[C@@H](CC(=O)O)C(=O)N[C@@H](Cc1ccc(O)cc1)C(=O)N[C@@H](CO)C(=O)N[C@@H](CCCCN)C(=O)N[C@@H](Cc1ccc(O)cc1)C(=O)N[C@@H](CC(C)C)C(=O)N[C@@H](CC(=O)O)C(=O)NC(C)(C)C(=O)N[C@@H](CCCNC(=N)N)C(=O)N[C@@H](CCCNC(=N)N)C(=O)N[C@@H](C)C(=O)N[C@@H](CO)C(=O)N[C@@H](CC(=O)O)C(=O)N[C@@H](Cc1ccccc1)C(=O)N[C@H](C(=O)N[C@@H](CO)C(=O)N[C@@H](Cc1c[nH]c2ccccc12)C(=O)N[C@@H](CC(C)C)C(=O)N[C@@H](CC(C)C)C(=O)N[C@@H](CC(=O)O)C(=O)N[C@@H](CCC(=O)O)C(=O)O)C(C)C)[C@@H](C)O)[C@@H](C)O (H-HS[Dab](Ac)GTFTSDYSKYLD[Aib]RRASDFVSWLLDE-OH; N-terminus and C-terminus assumed)

Compound	% activity
CC(=O)NCC[C@H](NC(=O)[C@H](CO)NC(=O)[C@@H](N)Cc1c[nH]cn1)C(=O)NCC(=O)N[C@H](C(=O)N[C@@H](Cc1ccccc1)C(=O)N[C@H](C(=O)N[C@@H](CO)C(=O)N[C@@H](CC(=O)O)C(=O)N[C@@H](Cc1ccc(O)cc1)C(=O)N[C@@H](CO)C(=O)N[C@@H](CCCCN)C(=O)N[C@@H](Cc1ccc(O)cc1)C(=O)N[C@@H](CC(C)C)C(=O)N[C@@H](CC(=O)O)C(=O)NC(C)(C)C(=O)N[C@@H](CCCNC(=N)N)C(=O)N[C@@H](CCCNC(=N)N)C(=O)N[C@@H](C)C(=O)N[C@@H](C)C(=O)N[C@@H](CC(=O)O)C(=O)N[C@@H](Cc1ccccc1)C(=O)N[C@H](C(=O)N[C@@H](C)C(=O)N[C@@H](Cc1c[nH]c2ccccc12)C(=O)N[C@@H](CC(C)C)C(=O)N[C@@H](CC(C)C)C(=O)N[C@@H](CC(=O)O)C(=O)N[C@H](C(=O)NCC(=O)N1CCC[C@H]1C(=O)N[C@@H](CO)C(=O)N[C@@H](CO)C(=O)NCC(=O)N[C@@H](C)C(=O)N1CCC[C@H]1C(=O)N1CCC[C@H]1C(=O)N1CCC[C@H]1C(=O)N[C@@H](CO)C(N)=O)[C@@H](C)O)C(C)C)[C@@H](C)O)[C@@H](C)O (H-HS[Dab](Ac)GTFTSDYSKYLD[Aib]RRAADFVAWLLDTGPSSGAPPPS-NH2; N-terminus assumed)	113%
